In patent US10780092B2, “Fused pyrazine derivatives useful as soluble guanylate cyclase stimulators” (Merck Sharp & Dohme Corp., priority 2016, dated 2020):

Key:
sGC α1/β1 heterodimer = sGC α1/β1 heterodimer (Homo sapiens (Human), UniProt Q02108+Q02153); assay: Cell-based sGC functional assay (CASA assay), cGMP by HTRF; details: CHO-K1/sGC cells; for Emax: CHO-K1, cGMP production as percentage of maximum of compound A (set to 100%), read-out: % Activation; for EC50: inflection point of cGMP production, 4P fit, read-out: IP
Method in brief: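 CHO-K1 cells stably expressing human sGC α1/β1, with 0.5 mM IBMX, pre-incubated ±1 μM DETA-NO 30 min at 25° C, then compound 1 hr at 37° C (2.5% DMSO). cGMP by HTRF; activation as % of reference activator maximum, 4P fit giving inflection point and maximum […].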

[1] = molecular target: human recombinant sGC enzyme (Homo sapiens (Human), UniProt Q02108+Q02153); assay: SEC competition binding assay with [3H] Compound B radioligand; details: displacement of 1.6 nM [3H] Compound B, 24 h at 37° C.
Method in brief: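 Recombinant human sGC incubated with 1.6 nM [3H] Compound B and test compounds for 24 h at 37° C. Buffer: 50 mM triethanolamine pH 7.4, 3 mM MgCl2, 0.025% BSA, 2 mM DTT, 300 μM DETA/NO, 400 μM GTP, 1% DMSO. Bound ligand separated by gel filtration and counted by scintillation; non-specific binding with 1 μM Compound B; Ki from one-site fit.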

SMILES | Emax (sGC α1/β1 heterodimer) [%] | EC50 (sGC α1/β1 heterodimer) [nM] | Ki [1] [nM]
CCCCc1nc(-c2nc(N)c3c(n2)NC(=O)C3(C)c2ccc(Cl)c(O)c2)cn2ncnc12 (stereo not drawn) [Example 50-A, 4-Amino-2-(8-butyl-[1,2,4]triazolo[1,5-a]pyrazin-6-yl)-5-(4-chloro-3-hydroxyphenyl)-5-methyl-5,7-dihydro-6H-pyrrolo[2,3-d]pyrimidin-6-one] | 175 | 70 | 0.775
CCCCc1nc(-c2nc(N)c3c(n2)NC(=O)C3(C)c2ccc(Cl)c(O)c2)cn2ccnc12 (stereo not drawn) [Example 52-A, 4-Amino-2-(8-butylimidazo[1,2-a]pyrazin-6-yl)-5-(4-chloro-3-hydroxyphenyl)-5-methyl-5,7-dihydro-6H-pyrrolo[2,3-d]pyrimidin-6-one] | 85 | 144 | 0.864
CC(C)CCc1nc(-c2nc(N)c3c(n2)NC(=O)C3(C)c2ccc(O)c(F)c2)cn2ccnc12 (stereo not drawn) [Example 54-B, 4-Amino-5-(3-fluoro-4-hydroxyphenyl)-2-(8-isopentylimidazo[1,2-a]pyrazin-6-yl)-5-methyl-5,7-dihydro-6H-pyrrolo[2,3-d]pyrimidin-6-one] | 72 | 42 | 1.08
CC1(c2ccc(Cl)c(O)c2)C(=O)Nc2nc(-c3cn4ccnc4c(CCCC(F)(F)F)n3)nc(N)c21 (stereo not drawn) [Example 55-A, 4-Amino-5-(4-chloro-3-hydroxyphenyl)-5-methyl-2-(8-(4,4,4-trifluorobutyl)imidazo[1,2-a]pyrazin-6-yl)-5,7-dihydro-6H-pyrrolo[2,3-d]pyrimidin-6-one] | 113 | 969 | 1.21
CC1(c2cccc(O)c2)C(=O)Nc2nc(-c3cn4ccnc4c(Cc4ccc(Cl)cc4)n3)nc(N)c21 (stereo not drawn) [Example 56-B, 4-Amino-2-{8-[(4-chlorophenyl)methyl]imidazo[1,2-a]pyrazin-6-yl}-5-(3-hydroxyphenyl)-5-methyl-5,7-dihydro-6H-pyrrolo[2,3-d]pyrimidin-6-one] | 101 | 627 | 1.24
CC(C)CCc1nc(-c2nc(N)c3c(n2)NC(=O)C3(C)c2cc(O)c(Cl)cn2)cn2ccnc12 (stereo not drawn) [Example 57-B, 4-Amino-5-(5-chloro-4-hydroxypyridin-2-yl)-2-(8-isopentylimidazo[1,2-a]pyrazin-6-yl)-5-methyl-5,7-dihydro-6H-pyrrolo[2,3-d]pyrimidin-6-one] | 67 | 798 | 1.24
CC(C)CCc1nc(-c2nc(N)c3c(n2)NC(=O)C3(C)c2ccc(O)cc2)cn2ccnc12 (stereo not drawn) [Example 58-B, 4-Amino-5-(4-hydroxyphenyl)-2-(8-isopentylimidazo[1,2-a]pyrazin-6-yl)-5-methyl-5,7-dihydro-6H-pyrrolo[2,3-d]pyrimidin-6-one] | 121 | 164 | 1.54
CC(C)CCc1nc(-c2nc(N)c3c(n2)NC(=O)C3(C)c2cccc(O)c2)cn2ccnc12 (stereo not drawn) [Example 59-B, 4-Amino-5-(3-hydroxyphenyl)-2-(8-isopentylimidazo[1,2-a]pyrazin-6-yl)-5-methyl-5,7-dihydro-6H-pyrrolo[2,3-d]pyrimidin-6-one] | 109 | 335 | 1.72
CC1(c2ccc(O)c(Cl)c2)C(=O)Nc2nc(-c3cn4ccnc4c(Cc4ccc(F)cc4)n3)nc(N)c21 (stereo not drawn) [Example 60-B, 4-Amino-5-(3-chloro-4-hydroxyphenyl)-2-{8-[(4-fluorophenyl)methyl]imidazo[1,2-a]pyrazin-6-yl]-5-methyl-5,7-dihydro-6H-pyrrolo[2,3-d]pyrimidin-6-one] | 138 | 4380 | 1.92
CCCCc1nc(-c2nc(N)c3c(n2)NC(=O)C3(C)c2ccc(C(F)(F)F)c(O)c2)cn2ncnc12 (stereo not drawn) [Example 61-B, 4-Amino-2-(8-butyl-[1,2,4]triazolo[1,5-a]pyrazin-6-yl)-5-(3-hydroxy-4-(trifluoromethyl)phenyl)-5-methyl-5,7-dihydro-6H-pyrrolo[2,3-d]pyrimidin-6-one] | 105 | 121 | 2.08
CCCCc1nc(-c2nc(N)c3c(n2)NC(=O)C3(C)c2ccc(F)c(O)c2)cn2ncnc12 (stereo not drawn) [Example 62-B, 4-Amino-2-(8-butyl-[1,2,4]triazolo[1,5-a]pyrazin-6-yl)-5-(4-fluoro-3-hydroxyphenyl)-5-methyl-5,7-dihydro-6H-pyrrolo[2,3-d]pyrimidin-6-one] | 97 | 49 | 2.21
CC1(c2ccc(Cl)c(O)c2)C(=O)Nc2nc(-c3cn4ccnc4c(CCC4CCCCC4)n3)nc(N)c21 (stereo not drawn) [Example 63-A, 4-Amino-5-(4-chloro-3-hydroxyphenyl)-2-(8-(2-cyclohexylethyl)imidazo[1,2-a]pyrazin-6-yl)-5-methyl-5,7-dihydro-6H-pyrrolo[2,3-d]pyrimidin-6-one] | 121 | 600 | 2.2
CC(C)CCc1nc(-c2nc(N)c3c(n2)NC(=O)C3(C)c2ccc(C(F)(F)F)c(O)c2)cn2ccnc12 (stereo not drawn) [Example 64-B, 4-Amino-5-(3-hydroxy-4-(trifluoromethyl)phenyl)-2-(8-isopentylimidazo[1,2-a]pyrazin-6-yl)-5-methyl-5,7-dihydro-6H-pyrrolo[2,3-d]pyrimidin-6-one] | 125 | 1320 | 2.22
CC1(c2ccc(Cl)c(O)c2)C(=O)Nc2nc(-c3cn4ccnc4c(CCC(F)(F)C(F)(F)F)n3)nc(N)c21 (stereo not drawn) [Example 65-A, 4-Amino-5-(4-chloro-3-hydroxyphenyl)-5-methyl-2-(8-(3,3,4,4,4-pentafluorobutyl)imidazo[1,2-a]pyrazin-6-yl)-5,7-dihydro-6H-pyrrolo[2,3-d]pyrimidin-6-one] | 85 | 797 | 2.26
CC1(c2ccc(O)c(Cl)c2)C(=O)Nc2nc(-c3cn4ncnc4c(Cc4ccc(F)cc4)n3)nc(N)c21 (stereo not drawn) [Example 66-B, 4-Amino-5-(3-chloro-4-hydroxyphenyl)-2-{8-[(4-fluorophenyl)methyl]-[1,2,4]triazolo[1,5-a]pyrazin-6-yl}-5-methyl-5,7-dihydro-6H-pyrrolo[2,3-d]pyrimidin-6-one] | 141 | 2150 | 2.57
CC1(c2ccc(Cl)c(O)c2Cl)C(=O)Nc2nc(-c3cn4ncnc4c(CC4CCCCC4)n3)nc(N)c21 (stereo not drawn) [Example 67-A, 4-Amino-2-(8-(cyclohexylmethyl)-[1,2,4]triazolo[1,5-a]pyrazin-6-yl)-5-(2,4-dichloro-3-hydroxyphenyl)-5-methyl-5,7-dihydro-6H-pyrrolo[2,3-d]pyrimidin-6-one] | 134 | 728 | 2.65
CCCCc1nc(-c2nc(N)c3c(n2)NC(=O)C3(C)c2cccc(O)c2)cn2ncnc12 (stereo not drawn) [Example 68-B, 4-Amino-2-(8-butyl-[1,2,4]triazolo[1,5-a]pyrazin-6-yl)-5-(3-hydroxyphenyl)-5-methyl-5,7-dihydro-6H-pyrrolo[2,3-d]pyrimidin-6-one] | 96 | 46 | 2.92
CC1(c2ccc(Cl)c(O)c2Cl)C(=O)Nc2nc(-c3cn4ccnc4c(CC4CCCCC4)n3)nc(N)c21 (stereo not drawn) [Example 69-A, 4-Amino-2-(8-(cyclohexylmethyl)imidazo[1,2-a]pyrazin-6-yl)-5-(2,4-dichloro-3-hydroxyphenyl)-5-methyl-5,7-dihydro-6H-pyrrolo[2,3-d]pyrimidin-6-one] | 108 | 1380 | 3.47
CCCCc1nc(-c2nc(N)c3c(n2)NC(=O)C3(C)c2ccc(O)cc2)cn2ncnc12 (stereo not drawn) [Example 70-B, 4-Amino-2-(8-butyl-[1,2,4]triazolo[1,5-a]pyrazin-6-yl)-5-(4-hydroxyphenyl)-5-methyl-5,7-dihydro-6H-pyrrolo[2,3-d]pyrimidin-6-one] | 81 | 32 | 3.96
CCCCc1nc(-c2nc(N)c3c(n2)NC(=O)C3(C)c2ccc(O)c(F)c2)cn2ncnc12 (stereo not drawn) [Example 71-B, 4-Amino-2-(8-butyl-[1,2,4]triazolo[1,5-a]pyrazin-6-yl)-5-(3-fluoro-4-hydroxyphenyl)-5-methyl-5,7-dihydro-6H-pyrrolo[2,3-d]pyrimidin-6-one] | 81 | 30 | 4.08
CCCCc1nc(-c2nc(N)c3c(n2)NC(=O)C3(C)c2cc(O)c(Cl)cn2)cn2ccnc12 (stereo not drawn) [Example 72-B, 4-Amino-2-(8-butylimidazo[1,2-a]pyrazin-6-yl)-5-(5-chloro-4-hydroxypyridin-2-yl)-5-methyl-5,7-dihydro-6H-pyrrolo[2,3-d]pyrimidin-6-one] | 84 | 3460 | 4.62
CC1(c2ncc(Cl)c(O)c2Cl)C(=O)Nc2nc(-c3cn4ccnc4c(Cc4cc(F)cc(F)c4)n3)nc(N)c21 (stereo not drawn) [Example 73-A, 4-Amino-5-(3,5-dichloro-4-hydroxypyridin-2-yl)-2-{8-[(3,5-difluorophenyl)methyl]imidazo[1,2-a]pyrazin-6-yl}-5-methyl-5,7-dihydro-6H-pyrrolo[2,3-d]pyrimidin-6-one] | 81 | 694 | 6.01
CCCCc1nc(-c2nc(N)c3c(n2)NC(=O)C3(C)c2ccc(O)c(Cl)c2)cn2ncnc12 (stereo not drawn) [Example 74-B, 4-Amino-2-(8-butyl-[1,2,4]triazolo[1,5-a]pyrazin-6-yl)-5-(3-chloro-4-hydroxyphenyl)-5-methyl-5,7-dihydro-6H-pyrrolo[2,3-d]pyrimidin-6-one] | 122 | 131 | 6.17
